According to ChEMBL document CHEMBL4673351, “3α-Angeloyloxy-ent-kaur-16-en-19-oic Acid Isolated from Wedelia trilobata L. Alleviates Xylene-Induced Mouse Ear Edema and Inhibits NF-κB and MAPK Pathway in LPS-Stimulated Macrophages” (J Nat Prod, 2020):
Calls of active or inactive are those of the source.

Legend:
[1] = (§1) Inhibition of NF-kappaB activation in mouse RaW264.7 cells assessed as reduction in LPS-induced NO production after 24 hrs by Griess reagent based assay; assay type: cell-based; details: RAW264.7, 24 h
RAW264.7 [2] = assay: Cytotoxicity against mouse RAW264.7 cells assessed as reduction in cell viability up to 60 uM after 24 hrs in presence of LPS by MTT assay; assay type: cell-based; details: raw264.7, 24 h
RAW264.7 [3] = assay: (§2) Inhibition of NF-kappaB activation in mouse RaW264.7 cells assessed as reduction in LPS-induced PGE2 production after 24 hrs by ELISA; assay type: cell-based
[4] = as §2; assay type: cell-based; details: RAW264.7, 24 h
[5] = biological target: MAP kinase p38 (Mus musculus) (UniProt P47811+O08911+Q9WUI1+Q9Z1B7); assay: Inhibition of p38 phosphorylation in LPS-induced mouse RaW264.7 cells up to 30 uM after 24 hrs by Western blot analysis; details: dose microM <=30, time 24.0 hrs
RAW264.7 [6] = assay: Cytotoxicity against mouse RAW264.7 cells assessed as reduction in cell viability up to 80 uM after 24 hrs by MTT assay; assay type: cell-based; details: raw264.7, 24 h
RAW264.7 [7] = assay: Inhibition of LPS-induced iNOS protein expression in mouse RAW264.7 cells up to 30 uM after 24 hrs by Western blot analysis; assay type: functional, cell-based; details: dose microM <=30, time 24.0 hrs
RAW264.7 [8] = assay: as §1; assay type: cell-based
RAW264.7 [9] = assay: Inhibition of NF-kappaB activation in mouse RaW264.7 cells assessed as reduction in LPS-induced IL-6 mRNA expression after 24 hrs by qRT-PCR analysis; assay type: cell-based
RAW264.7 [10] = assay: Inhibition of ERK phosphorylation in LPS-induced mouse RaW264.7 cells up to 30 uM after 24 hrs by Western blot analysis; details: dose microM <=30, time 24.0 hrs
RAW264.7 [11] = assay: Inhibition of NF-kappaB in mouse RaW264.7 cells assessed as reduction in LPS-induced IkappaBalpha degradation up to 30 uM after 24 hrs by Western blot analysis; assay type: cell-based; details: dose microM <=30, time 24.0 hrs
RAW264.7 [12] = assay: Inhibition of LPS-induced iNOS mRNA expression in mouse RAW264.7 cells after 24 hrs by qRT-PCR analysis; assay type: functional, cell-based
RAW264.7 [13] = assay: Inhibition of NF-kappaB p65 nuclear translocation in LPS-induced mouse RaW264.7 cells at 20 uM after 24 hrs by DAPI staining based Immunofluorescence assay
RAW264.7 [14] = assay: Inhibition of LPS-induced COX-2 mRNA expression in mouse RAW264.7 cells after 24 hrs by qRT-PCR analysis; assay type: functional, cell-based
RAW264.7 [15] = assay: Inhibition of NF-kappaB activation in mouse RaW264.7 cells assessed as reduction in LPS-induced TNFalpha mRNA expression after 24 hrs by qRT-PCR analysis; assay type: cell-based
RAW264.7 [16] = assay: Inhibition of NF-kappaB activation in mouse RaW264.7 cells assessed as reduction in LPS-induced TNF-alpha protein expression up to 30 uM after 24 hrs by Western blot analysis; assay type: cell-based; details: dose microM <=30, time 24.0 hrs
RAW264.7 [17] = assay: Inhibition of JNK phosphorylation in LPS-induced mouse RaW264.7 cells up to 30 uM after 24 hrs by Western blot analysis; details: dose microM <=30, time 24.0 hrs
Mus musculus [18] = assay: Antiinflammatory activity in Kunming mouse assessed as reduction in xylene-induced vasodilation in ear at 50 mg/kg administered topically pretreated for 30 mins followed by xylene-treatment and measured after 30 mins by H and E staining based microscopic method; assay type: functional, organism-based; details: time 60.0 min
RAW264.7 [19] = assay: Inhibition of LPS-induced mitochondrial membrane potential loss in mouse RAW264.7 cells at 20 uM after 24 hrs by JC-1 staining based fluorescence microscopic method; assay type: functional, cell-based
RAW264.7 [20] = assay: Inhibition of IKKalpha/beta phosphorylation in LPS-induced mouse RaW264.7 cells up to 30 uM after 24 hrs by Western blot analysis; details: dose microM <=30, time 24.0 hrs
Mus musculus [21] = assay: Antiinflammatory activity in Kunming mouse assessed as reduction in xylene-induced ear edema at 25 mg/kg administered topically pretreated for 30 mins followed by xylene-treatment and measured after 30 mins relative to control; assay type: functional; parameters: scale not given: the % may be the effect or the level left; details: time 60 min, 1 h
Mus musculus [22] = assay: Antiinflammatory activity in Kunming mouse assessed as reduction in xylene-induced cell infiltration in ear at 50 mg/kg administered topically pretreated for 30 mins followed by xylene-treatment and measured after 30 mins by H and E staining based microscopic method; assay type: functional, organism-based; details: time 60.0 min
Mus musculus [23] = assay: Antiinflammatory activity in Kunming mouse assessed as reduction in xylene-induced ear edema at 50 mg/kg administered topically pretreated for 30 mins followed by xylene-treatment and measured after 30 mins relative to control; assay type: functional; parameters: scale not given: the % may be the effect or the level left; details: time 60 min, 1 h
RAW264.7 [24] = assay: Inhibition of LPS-induced COX-2 protein expression in mouse RAW264.7 cells up to 30 uM after 24 hrs by Western blot analysis; assay type: functional, cell-based; details: dose microM <=30, time 24.0 hrs
RAW264.7 [25] = assay: Inhibition of LPS-induced ROS generation in mouse RAW264.7 cells up to 40 uM after 24 hrs by DCFH-DA staining based fluorescence assay; assay type: functional, cell-based; details: dose microM <=40, time 24.0 hrs
RAW264.7 [26] = assay: Inhibition of NF-kappaB activation in mouse RaW264.7 cells assessed as reduction in LPS-induced IL-6 protein expression up to 30 uM after 24 hrs by Western blot analysis; assay type: cell-based; details: dose microM <=30, time 24.0 hrs
RAW264.7 [27] = assay: Inhibition of NF-kappaB phosphorylation in LPS-induced mouse RaW264.7 cells up to 30 uM after 24 hrs by Western blot analysis; details: dose microM <=30, time 24.0 hrs
Mus musculus [28] = assay: Antiinflammatory activity in Kunming mouse assessed as reduction in xylene-induced cell infiltration in ear at 5 mg/kg administered topically pretreated for 30 mins followed by xylene-treatment and measured after 30 mins by H and E staining based microscopic method; assay type: functional, organism-based; details: time 60.0 min
Mus musculus [29] = assay: Antiinflammatory activity in Kunming mouse assessed as reduction in xylene-induced ear edema at 5 mg/kg administered topically pretreated for 30 mins followed by xylene-treatment and measured after 30 mins relative to control; assay type: functional; parameters: scale not given: the % may be the effect or the level left; details: time 60 min, 1 h
Mus musculus [30] = assay: Antiinflammatory activity in Kunming mouse assessed as reduction in xylene-induced vasodilation in ear at 5 mg/kg administered topically pretreated for 30 mins followed by xylene-treatment and measured after 30 mins by H and E staining based microscopic method; assay type: functional, organism-based; details: time 60.0 min

C=C1C[C@@]23CC[C@H]4[C@@](C)(CCC[C@@]4(C)C(=O)O)[C@@H]2CC[C@@H]1C3 [KAURENOIC ACID]
50 µM: IC50 [1]

C=C1C[C@@]23CC[C@H]4[C@@](C)(CC[C@@H](OC(=O)/C(C)=C\C)[C@@]4(C)C(=O)O)[C@@H]2CC[C@@H]1C3
42.44%: Activity (Mus musculus [21])
Non-Toxic: Activity (RAW264.7 [2]) | Activity (RAW264.7 [6])
51.57%: Activity (Mus musculus [23])
active: inhibition (RAW264.7 [3]) Dose-dependent effect | inhibition [5] | inhibition (RAW264.7 [7]) | inhibition (RAW264.7 [8]) Dose-dependent effect | inhibition (RAW264.7 [9]) Dose-dependent effect | inhibition (RAW264.7 [10]) | inhibition (RAW264.7 [11]) | inhibition (RAW264.7 [12]) Dose-dependent effect | inhibition (RAW264.7 [13]) | inhibition (RAW264.7 [14]) Dose-dependent effect | inhibition (RAW264.7 [15]) Dose-dependent effect | inhibition (RAW264.7 [16]) | inhibition (RAW264.7 [17]) | Activity (Mus musculus [18]) | inhibition (RAW264.7 [19]) | inhibition (RAW264.7 [20]) | Activity (Mus musculus [22]) | inhibition (RAW264.7 [24]) | inhibition (RAW264.7 [25]) | inhibition (RAW264.7 [26]) | inhibition (RAW264.7 [27])
20.3 µM: IC50 [4] | IC50 [1]

C[C@]12CCC(=O)C=C1CC[C@@H]1[C@@H]2[C@@H](O)C[C@@]2(C)[C@H]1CC[C@]2(O)C(=O)CO [HYDROCORTISONE]
active: Activity (Mus musculus [28]) | Activity (Mus musculus [30])
55.53%: Activity (Mus musculus [29])
